In patent publication US20100063162A1, “METHOD FOR PREDICTING EFFICACY OF RAR-ALPHA AGONIST” (TAIHO PHARMACEUTICAL CO., LTD., priority 2005, published 2010):

What was measured:
[1] = test system: human liver cancer; conditions: phase II study; cited from earlier work
[2] = test system: HCC-E cells; experiment: Survival after spleen inoculation (liver metastasis model), HCC-E; assay type: in vivo, nude mouse; conditions: oral every day for 4 weeks, nude mice
Text: (§1) Further, correlation between the cofactor balance and survival advantage was examined by using cancer cell lines for which survival were evaluatable. When cells of the colorectal cancer cell line CAC, having an AIB1/SP110b ratio of 0.08 so as to be dominant in SP110b, and the aforementioned HCC-E cells are inoculated in the nude mouse spleen, dissemination easily occurs in the liver, resulting in formation of a metastatic condition in the liver. After 1×10^6 of CAC or HCC-E cells were transplanted, and TAC-101 was orally administered every day for 4 weeks, the survival time of each model animal was observed. In the CAC model, in which SP110b was dominant, prolongation of the survival time was only 26%, whereas in the HCC-E model, in which the class of the p160 family molecule was dominant, nearly […] longer survival time prolongation of 81% was confirmed. Further, this effect in the HCC-E model was also statistically significant (P<0.001).

[3] = test system: RAR-α; experiment: RAR-α transcription activity test (pRARE-SEAP reporter) in hepatocellular carcinoma cells; assay type: cell-based, human; conditions: for RAR response (T/C %): 24 hours, untreated cells = 100
Description: The test for confirming the RAR-α transcription activity was performed as follows.
Hepatocellular carcinoma cells of each type transfected with a reporter plasmid containing an RAR-α binding sequence with the SEAP gene in a downstream region (pRARE-SEAP-TA-vector, Clontech) were treated with an RAR-α agonist, and then the SEAP alkaline phosphatase activity in the culture supernatant was measured. The cultured hepatocellular carcinoma cells were transfected with the RARE reporter plasmid mixed in a transfection reagent prepared by using the culture broth and FuGENE6 solution at a ratio of 100:6 and cultured for 24 hours. The culture broth was replaced with the one containing TAC-101 as an RAR-α agonist, and the cells were cultured for further 24 hours. Then, the culture supernatant was collected, and transcription activity was confirmed by using an alkaline phosphatase activity measurement reagent (SEAP Detection Kit, Clontech).

[4] = test system: colorectal cancer cell line CAC; experiment: Survival after spleen inoculation (liver metastasis model), CAC; assay type: in vivo, nude mouse; conditions: oral every day for 4 weeks, nude mice
Text: as §1

[5] = test system: HCC-C; experiment: Orthotopic hepatoma model, tumor weight in the liver, HCC-C; assay type: in vivo, nude mouse; conditions: oral everyday, 3 weeks, nude mice
Description: (§2) Accordingly, an experiment of therapeutic treatment was performed to examine susceptibility to RAR-α agonists. The cultured liver cancer cells were transplanted in an amount of 1×10^6 cells into the outer left lobes of the livers in nude mice (BALB/cA Jcl-nu, Clea Japan, Inc.), TAC-101 as an RAR-α agonist was orally administered everyday as a 0.5% hydroxypropylmethylcellulose suspension (Shin-Etsu Chemical Co., Ltd.), and then the weights of tumors formed in the livers were measured 3 weeks later to obtain mean inhibition rates. […] Further, it was also observed by two-sided Student's t test that these antitumor effects were statistically significant inhibitory action.

[6] = test system: HCC-E; experiment: Orthotopic hepatoma model, tumor weight in the liver, HCC-E; assay type: in vivo, nude mouse; conditions: oral everyday, 3 weeks, nude mice
Description: as §2

[7] = test system: liver cancer; conditions: animal model of liver cancer; cited from earlier work
[8] = test system: HCC-D; experiment: Orthotopic hepatoma model, tumor weight in the liver, HCC-D; assay type: in vivo, nude mouse; conditions: oral everyday, 3 weeks, nude mice
Description: as §2

C[Si](C)(C)c1cc(C(=O)Nc2ccc(C(=O)O)cc2)cc([Si](C)(C)C)c1 [TAC-101, 4-[3,5-Bis(trimethylsilyl)benzamido]benzoic acid]
prevention of tumor progression [1]: 43% | Increase of life span (%) [2]: 81% | RAR response (T/C %) ([3]; HCC-A cells, TAC-101 0.3 μM): 142% | RAR response (T/C %) ([3]; HCC-A cells, TAC-101 1 μM): 110% | RAR response (T/C %) ([3]; HCC-A cells, TAC-101 3 μM): 143% | RAR response (T/C %) ([3]; HCC-B cells, TAC-101 0.3 μM): 180% | RAR response (T/C %) ([3]; HCC-B cells, TAC-101 1 μM): 188% | RAR response (T/C %) ([3]; HCC-B cells, TAC-101 3 μM): 146% | RAR transcription activity induced by TAC-101 (in words) ([3]; HCC-C cells): high | RAR response (T/C %) ([3]; HCC-C cells, TAC-101 0.3 μM): 342% | RAR response (T/C %) ([3]; HCC-C cells, TAC-101 1 μM): 497% | RAR response (T/C %) ([3]; HCC-C cells, TAC-101 3 μM): 285% | RAR transcription activity induced by TAC-101 (in words) ([3]; HCC-D cells): weak | RAR response (T/C %) ([3]; HCC-D cells, TAC-101 0.3 μM): 161% | RAR response (T/C %) ([3]; HCC-D cells, TAC-101 1 μM): 161% | RAR response (T/C %) ([3]; HCC-D cells, TAC-101 3 μM): 168% | RAR transcription activity induced by TAC-101 (in words) ([3]; HCC-E cells): high | RAR response (T/C %) ([3]; HCC-E cells, TAC-101 0.3 μM): 476% | RAR response (T/C %) ([3]; HCC-E cells, TAC-101 1 μM): 482% | RAR response (T/C %) ([3]; HCC-E cells, TAC-101 3 μM): 259% | Increase of life span (%) [4]: 26% | Inhibition (%) of tumor growth (tumor weight, mean inhibition rate) [5]: 81% | Inhibition (%) of tumor growth (tumor weight, mean inhibition rate) [6]: 67% | antitumor activity (in words) [7]: antitumor activity of TAC-101 was observed | Inhibition (%) of tumor growth (tumor weight, mean inhibition rate) [8]: −3% | therapeutic effect (in words) [8]: no therapeutic effect was observed
